The target in test [1] is Serotonin 3 (5-HT3) receptor. Nature of the test: Compound was tested for the inhibition of [3H]GR-65630 binding to 5-hydroxytryptamine 3 receptor expressed in NG 108-15 cells. It counts as cell-based.
Test [2] is filed under the species Rattus norvegicus. Nature of the test: Compound tested for its 5-HT3 -Stimulant potency in rat relative to compound 6 ( Value = 1). Format: functional.
For test [3], the species on record is Oryctolagus cuniculus. Nature of the test: Minimal effective dose for its 5-HT3 -Stimulant potency in rabbit bladder preparation. It counts as functional.
For test [4], the species on record is Rattus norvegicus. Description: Compound tested for its 5-HT3 -Stimulant potency in rat relative to compound 6 ( Value = 1); range 0.3-0.6. Format: functional.
The species entered for test [5] is Rattus norvegicus. Nature of the test: Compound tested for its 5-HT3 -Stimulant potency in rat relative to compound 6 ( Value = 1); Range 0.5-1.3. Format: functional.

For the compound `N=C(N)NC(=N)Nc1ccc2ccccc2c1`, the Ki in test [1] (read-out: Ki) was determined as 0.012 µM. This compound also registered a Relative potency in test [2] of 0.5. In test [3], the Min effective dose stood at 0.01 mg/kg.

In test [1], `CN1CCN(c2ccc3ccccc3n2)CC1` had a Ki of 0.003 µM.

Consider `c1ccc(N2CCNCC2)cc1` [PHENYLPIPERAZINE], for which the Ki in test [1] (read-out: Ki) came out at 3 µM.

On to `N=C(N)Cc1cccc(Cl)c1`, for which, in test [1] (read-out: Ki), the Ki amounted to 1.2 µM.

On to `COc1ccc(N2CCNCC2)c(OC)c1`, for which, in test [1] (read-out: Ki), the Ki was above 10 µM.

On to `COc1ccc(N2CCNCC2)c(C)c1`, for which the Ki in test [1] (read-out: Ki) amounted to 0.66 µM.

Regarding `COc1ccccc1C1(O)CCNCC1`, the Ki in test [1] (read-out: Ki) was above 10 µM.

As to `NC(N)=Nc1cccc(C(F)(F)F)c1`, in test [1] (read-out: Ki), the Ki is 5.7 µM.

With `c1ccc2cc(N3CCNCC3)ccc2c1`, the Ki in test [1] (read-out: Ki) was 0.032 µM. For the same compound, in test [2], the Relative potency is reported as below 0.02. The compound also returned a Min effective dose in test [3] of 0.03 mg/kg.

In the case of `N=C(N)NC(=N)Nc1cccc(Cl)c1`, the Ki in test [1] (read-out: Ki) is 0.017 µM. In test [2], this compound came in with a Relative potency of 1. The same compound returned a Min effective dose in test [3] of 0.0066 mg/kg.

Take `Clc1cccc(N2CCNCC2)n1`: the Ki in test [1] (read-out: Ki) is 0.015 µM.

Turning to `N=C(N)NC(=N)Nc1ccccc1Cl`, the Ki in test [1] (read-out: Ki) amounted to 0.062 µM.

With `Cc1ccc(NC(=N)N=C(N)N)cc1`, the Ki in test [1] (read-out: Ki) is above 10 µM.

On to `N=C(N)NC(=N)Nc1ccccc1` [PHENYL BIGUANIDE], for which, in test [4], the Relative potency came to 0.45. For the same compound, the Ki in test [1] (read-out: Ki) stood at 1.2 µM. In test [3], this compound yielded a Min effective dose of 0.01 mg/kg.

Consider `Clc1ccc(N2CCNCC2)cc1`, for which, in test [1] (read-out: Ki), the Ki stood at 2.16 µM.

With `N=C(N)NCc1cccc(Cl)c1`, in test [1] (read-out: Ki), the Ki was determined as 1.2 µM.

For `CN(C)CCc1cccc(Cl)c1`, the Ki in test [1] (read-out: Ki) was above 10 µM.

Turning to `FC(F)(F)c1cccc(N2CCNCC2)c1`, in test [1] (read-out: Ki), the Ki turned out to be 1.39 µM.

In the case of `COc1ccc(N2CCNCC2)cc1`, the Ki in test [1] (read-out: Ki) amounted to 1.64 µM.

On to `NC(N)=Nc1ccccc1Cl`, for which the Ki in test [1] (read-out: Ki) worked out at 0.19 µM.

Take `NC=Nc1cccc(Cl)c1`: the Ki in test [1] (read-out: Ki) was above 10 µM.

For the compound `Clc1cccc(CC2=NCCN2)c1`, the Ki in test [1] (read-out: Ki) is above 10 µM.

Consider `N=C(N)NCCc1ccc(Cl)cc1`, for which the Ki in test [1] (read-out: Ki) amounted to 0.243 µM.

Regarding `N=C(N)NCCc1ccccc1Cl`, the Ki in test [1] (read-out: Ki) is 0.15 µM.

Turning to `NC(=O)Nc1cccc(Cl)c1`, the Ki in test [1] (read-out: Ki) is above 10 µM.

With `Cc1cccc(NC(=N)N)c1`, the Ki in test [1] (read-out: Ki) was found to be 6.52 µM.

For the compound `NCCCCc1cccc(Cl)c1`, the Ki in test [1] (read-out: Ki) is above 10 µM.

As to `C[N+]1(C)CCN(c2cccc(C(F)(F)F)c2)CC1`, in test [1] (read-out: Ki), the Ki is above 10 µM.

In test [5], `NC(N)=Nc1cccc(Cl)c1` had a Relative potency of 0.74. In addition, the Ki in test [1] (read-out: Ki) was determined as 0.035 µM. Further, in test [3], the Min effective dose was determined as 0.15 mg/kg.

For the compound `NC(N)=Nc1ccc2ccccc2c1`, in test [1] (read-out: Ki), the Ki was 0.025 µM. The compound further yielded a Relative potency in test [2] of 1. The same compound displayed a Min effective dose in test [3] of 0.015 mg/kg.

Regarding `N=C(N)NC(=N)Nc1ccc(Cl)cc1` [4-CHLOROPHENYLBIGUANIDE], the Ki in test [1] (read-out: Ki) is 0.2 µM.

As for `N=C(N)NC(=O)Nc1cccc(Cl)c1`, the Ki in test [1] (read-out: Ki) was found to be 1.25 µM.

For the compound `NCCc1cccc(Cl)c1`, the Ki in test [1] (read-out: Ki) was above 10 µM.

As for `Cc1cccc(N2CCN(C)CC2)n1`, in test [1] (read-out: Ki), the Ki was 0.56 µM.

As to `COc1ccccc1N1CCNCC1`, the Ki in test [1] (read-out: Ki) is 2.5 µM.

As for `c1ccc2nc(N3CCCCC3)ccc2c1`, the Ki in test [1] (read-out: Ki) is above 10 µM.

`N=C(N)Nc1ccccc1` [PHENYLGUANIDINE]: the Ki in test [1] (read-out: Ki) is 2.34 µM.

`c1ccc2c(N3CCNCC3)cccc2c1`: the Ki in test [1] (read-out: Ki) came to 0.175 µM.

With `NCCCNc1cccc(Cl)c1`, the Ki in test [1] (read-out: Ki) is above 10 µM.

With `COc1cccc(NC(=N)N)c1`, in test [1] (read-out: Ki), the inhibitory constant (Ki) was 1.6 µM.

On to `N=C(N)NCCc1cccc(Cl)c1`, for which the Ki in test [1] (read-out: Ki) was 0.04 µM.

Consider `CN(C)C(=N)N=C(N)Nc1cccc(Cl)c1`, for which the Ki in test [1] (read-out: Ki) is above 10 µM.

For `NCCCc1cccc(Cl)c1`, the Ki in test [1] (read-out: Ki) was above 10 µM.

`N=C(N)Nc1ccc(Cl)cc1`: in test [1] (read-out: Ki), the Ki was determined as 0.32 µM.

Take `COc1ccc(Cl)cc1/N=C(\N)N=C(N)N`: the Ki in test [1] (read-out: Ki) was determined as 0.126 µM.

As for `Cc1ccc(NC(N)=NC(=N)N)cc1Cl`, the Ki in test [1] (read-out: Ki) came out at 0.225 µM.

For `N=C(N)Nc1ccccn1`, in test [1] (read-out: Ki), the Ki was above 10 µM.

`CNCCc1cccc(Cl)c1`: the Ki in test [1] (read-out: Ki) was above 10 µM.

For the compound `N=C(N)/N=C(\N)Nc1cccc([N+](=O)[O-])c1`, the Ki in test [1] (read-out: Ki) was 0.22 µM.

`NCCC(=O)Nc1cccc(Cl)c1`: the Ki in test [1] (read-out: Ki) was above 10 µM.

`Clc1cccc(N2CCNCC2)c1` [CHLOROPHENYLPIPERAZINE]: in test [1] (read-out: Ki), the Ki worked out at 0.062 µM. Moreover, in test [2], the Relative potency was below 0.02.

Consider `COc1ccc(Cl)cc1N1CCNCC1`, for which the Ki in test [1] (read-out: Ki) was 0.04 µM.

For `N=C(N)Nc1cccnc1` [PYRAXININE], the Ki in test [1] (read-out: Ki) is 2.91 µM.

Regarding `NCCNC(=O)c1cccc(Cl)c1`, the Ki in test [1] (read-out: Ki) is above 10 µM.

Consider `C[N+]1(C)CCN(c2cccc(Cl)c2)CC1`, for which the Ki in test [1] (read-out: Ki) amounted to 1.45 µM.

Take `c1ccc(C2CCNCC2)cc1`: the Ki in test [1] (read-out: Ki) is above 10 µM.

Regarding `Cc1cccc(NC(N)=NC(=N)N)c1`, in test [1] (read-out: Ki), the Ki stood at 0.78 µM.

These data come from ChEMBL document CHEMBL1129429, “Structure-activity relationships for the binding of arylpiperazines and arylbiguanides at 5-HT3 serotonin receptors” (J Med Chem, 1996).
